Tests used:
[1] = test system: human prostatic tumor xenographs (PC-82); assay: Inhibition of human prostatic tumor growth (PC-82 xenografts in athymic mice); type: in vivo
Experimental: In this model, human prostatic tumor xenographs (PC-82) are grown in athymic mice. The tumors are serially transplantable, androgen-responsive, slow-growing (i.e. 20-30 days for tumor volume to double) and are moderately differentiated human prostatic adenocarcinoma. These tumors will regress following androgen ablation with a half-life of 18 days (van Weerden, W. M. et al., Prostate 23:149-164 (1993).
The above tumor model of androgen-dependent human prostatic cancer was utilized to evaluate 4-amino-17β-(cyclopropyloxy)androst-4-en-3-one for inhibition of prostatic tumor growth following daily oral treatment at 30 and 100 mg/kg/day (See Table 2). Two control groups were tested, including one which received only the delivery vehicle and another which were bilaterally castrated. Tumor volumes were measured three times per week using a digital caliper using the formula: V (mm^3)=d1 ×(d2)^2 /2 were d1 is the length and d2 the width. The relative percent change in tumor volume is based on the mean tumor volume of the vehicle control groups at week 0 being set equal to 100%.

[2] = target: T1, cynomolgus monkey 5α-reductase (Macaca fascicularis, UniProt Q28892); assay: Inhibition of cynomolgus monkey prostatic 5α-reductase (prostate microsomes); type: biochemical; details: for IC50: testosterone at Km level
T1 construct: microsomes were isolated from cynomolgus monkey prostate tissue; from tissue; host or cells: cynomolgus monkey prostate microsomes
T1 sequence (Q28892 1-254): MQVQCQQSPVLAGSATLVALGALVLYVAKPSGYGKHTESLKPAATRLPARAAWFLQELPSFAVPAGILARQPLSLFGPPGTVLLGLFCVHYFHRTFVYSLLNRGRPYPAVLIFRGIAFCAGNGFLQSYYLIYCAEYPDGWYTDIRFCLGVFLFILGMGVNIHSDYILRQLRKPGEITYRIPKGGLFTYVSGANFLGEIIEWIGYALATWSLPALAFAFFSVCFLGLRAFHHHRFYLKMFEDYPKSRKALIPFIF
Experimental: The activity of the present compounds as inhibitors of steroid 5α-reductase was determined using microsomal preparations of the 5α-reductase enzyme from laboratory prostate tissue. Specifically, microsomes were isolated from cynomolgus monkey prostate tissue. Protein concentration of the microsomal preparations was determined prior to use of the samples. Individual assays of cynomolgus monkey prostatic 5α-reductase activity contained 0.1M potassium phosphate-sodium citrate buffer (K-Na buffer, 1:1), pH 5.6, 0.1% bovine serum albumin (w/v), 1.0 mM sodium EDTA, 7 to 96 μg of microsomal protein, 1.0 mM NADPH, 5.0 mM glucose-6-phosphate, 1 IU/mL glucose-6 -phosphate dehydrogenase, [1,2-^3 H]-testosterone (0.15 μCi), unlabeled testosterone to yield the desired concentration of substrate, and inhibitor which was dissolved in dimethyl sulfoxide (DMSO) then diluted in K-Na buffer to yield a final assay concentration of 0.1% (v/v) DMSO. The same buffer and DMSO without inhibitor were used in control assays. Background radioactivity was determined from assays containing all components except enzyme. Assays were performed in duplicate. The reaction was initiated by the addition of testosterone and incubated for 20 minutes at 25° C. in a Dubnoff® shaker incubator. Compound to be tested for inhibition was added simultaneously with testosterone. The total volume of the assay was 100 μL.
The 5α-reductase reactions were terminated by the addition of 5 mL chloroform-methanol (2:1) and 0.9 mL water. The carrier steroids were added in the form of 2.5 μg each of testosterone, dihydrotestosterone, and 3,17-androstanediol. […]

Row | SMILES | Relative percent tumor volume compared to vehicle control at beginning of timed period ([1]; 30 mg/kg/day oral, 0 weeks) | Tumor volume ([1]; 30 mg/kg/day oral, 0 weeks) | Relative percent tumor volume compared to vehicle control at beginning of timed period ([1]; 30 mg/kg/day oral, +2 weeks) | Tumor volume ([1]; 30 mg/kg/day oral, +2 weeks) | Relative percent tumor volume compared to vehicle control at beginning of timed period ([1]; 30 mg/kg/day oral, +4 weeks) | Tumor volume ([1]; 30 mg/kg/day oral, +4 weeks) | Relative percent tumor volume compared to vehicle control at beginning of timed period ([1]; 100 mg/kg/day oral, 0 weeks) | Tumor volume ([1]; 100 mg/kg/day oral, 0 weeks) | Relative percent tumor volume compared to vehicle control at beginning of timed period ([1]; 100 mg/kg/day oral, +2 weeks) | Tumor volume ([1]; 100 mg/kg/day oral, +2 weeks) | Relative percent tumor volume compared to vehicle control at beginning of timed period ([1]; 100 mg/kg/day oral, +4 weeks) | Tumor volume ([1]; 100 mg/kg/day oral, +4 weeks) | Inhibition of human prostatic tumor growth (in words) ([1]; daily oral treatment) | Ki ([2]; testosterone 0.5 Km to 8 Km) | IC50 [2]
1 | C[C@]12CC[C@H]3[C@@H](CCC4=C(N)C(=O)CC[C@@]43C)[C@@H]1CC[C@@H]2OC1CC1 [Compound 2, 4-Amino-17β-(cyclopropyloxy)androst-4-en-3-one] | 105% | 541 ± 71 mm^3 | 150% | 771 ± 108 mm^3 | 253% | 1305 ± 309 mm^3 | 83% | 426 ± 49 mm^3 | 117% | 601 ± 66 mm^3 | 163% | 840 ± 86 mm^3 | prolonged inhibition of human prostatic tumor growth | 7.8 ± 0.7 nM | 7.4 nM
2 | C[C@]12CC[C@H]3[C@@H](C=CC4=C(N)C(=O)CC[C@@]43C)[C@@H]1CC[C@@H]2OC1CC1 [Compound 1, 4-Amino-17β-(cyclopropyloxy)androsta-4,6-dien-3-one] |  |  |  |  |  |  |  |  |  |  |  |  |  |  | 2.8 nM
